Results on ten compounds are retold here after patent US20240127967A1.

Values joined by “and” are separate entries in the source; they are usually repeats but may differ in a detail not shown here. Equal values may be shown once. “Also recorded” adds a separate entry of the source. Read-outs that look alike come from different tables or passages of the source.

The subject of series [1] is EBOV/Mak. Particulars: cited from earlier work.
The conditions of series [2]: in vivo, cited from earlier work.
In series [3] the test system is EBOV. Particulars: mouse, in vivo; cited from earlier work.
Series [4] deals with EBOV/Mak. Briefly: microbe, parasite or virus in culture. Type of series: cell-based, Ebola virus. Particulars: for IC50: Zaire ebolavirus.
For the next series, the system named is VSV-EBOV-GPΔ-Luc. It counts as cell-based, VSV pseudovirus bearing EBOV GP.
Series [5] in a line: Pharmacokinetic modeling of human oral PK data (Monolix). As to conditions: for V: fitted PK model parameter (volume of plasma/serum compartment); for k: fitted elimination rate. Also on record: species or system humans.
Series [6] can be described thus: State of V8 preparations after storage at 4° C. Type of series: physicochemical. Particulars: stored at 4° C.
The conditions of series [7]: female, C57BL/6, mouse, in vivo; for Cmax: po.
Series [8] deals with EBOV. Particulars: read-out: IC50 (HepG2); cited from earlier work.
A further series concerns MARV. As to conditions: mouse, in vivo; cited from earlier work.
The nature of another series: in vivo. As to conditions: mouse, ip, 12 mg/kg.
Series [9] in a line: Solubility in ten test vehicles. As to conditions: for solubility in Vehicle #9: 3% NMP/45% PEG300/12% ethanol/40% sterile water; for solubility in Vehicle #9 / solubility in Vehicle #7 / solubility in Vehicle #6 / solubility in Vehicle #10 / solubility in Vehicle #8 / solubility in Vehicle #5 / solubility in Vehicle #4 / solubility in Vehicle #3: Bepridil 25, Sertraline 3, toremifene 8.4 mg/ml; for solubility in Vehicle #7: 5% NMP/95% PEG 300; for solubility in Vehicle #6: 10% Solutol/90% PEG 400; for solubility in Vehicle #2: 20% Captisol in water; for solubility in Vehicle #2 / solubility in Vehicle #1: Bepridil 25 mg/ml, Sertraline 3 mg/ml, toremifene 8.4 mg/ml; for solubility in Vehicle #10: 40% Propylene Glycol/30% Solutol HS 15/30% Sterile Water; for solubility in Vehicle #8: 80% PEG 400/20% of 0.1% Tween-20 in Water; for solubility in Vehicle #1: Aqueous Suspension Vehicle; for solubility in Vehicle #5: PEG 400; for solubility in Vehicle #4: Vegetable Oil; for solubility in Vehicle #3: […] PEG 400/[…] Tween 20/25% Capmul MCM NF.

Series [10] in a line: Tolerability of drugs in V8 in mice. Particulars: in V8, once daily PO, eleven consecutive days; bepridil 500, toremifene 200, sertraline 60 and 100 mg/kg.
A further series has as its system EBOV/Mak-005. Particulars: rhesus monkey, in vivo; cited from earlier work.
For series [11], the system named is EBOV. Also on record: species or system mice. Particulars: mouse, in vivo.
Setting [12] is: Huh-7, read-out: IC50 (average).

Regarding `Cc1cccc(/C=N/Nc2cc(N3CCOCC3)nc(OCCc3ccccn3)n2)c1` [Apilimod], the IC50 in the series with EBOV/Mak [1] (read-out: IC50 (Huh7)) is 0.17 µM. For the same compound, the Cmax in series [2] (human, po) was 260 nM.

For `O=C1CCc2ccc(OCCCCN3CCN(c4cccc(Cl)c4Cl)CC3)cc2N1` [Aripiprazole], in the series on EBOV [3], the “Survival (%)” value is 10 ^1%; the “adverse effect in treated infected mice” value is “^1 Mice became extremely somnolent, thwarting eating and drinking, which likely contributed to low survival”.

Regarding `CC[C@H]1OC(=O)[C@H](C)[C@@H](O[C@H]2C[C@@](C)(OC)[C@@H](O)[C@H](C)O2)[C@H](C)[C@@H](O[C@@H]2O[C@H](C)C[C@H](N(C)C)[C@H]2O)[C@](C)(O)C[C@@H](C)CN(C)[C@H](C)[C@@H](O)[C@]1(C)O` [Azithromycin], in the series on EBOV/Mak [1] (read-out: IC50 (Huh7)), the concentration for half-maximal inhibition (IC50) is 10.8 µM. For the same compound, the “Survival (%)” value in the series with EBOV [3] is on record as 10, 30, 60 ^2%.

With `CC(C)COCC(CN(Cc1ccccc1)c1ccccc1)N1CCCC1` (stereo not shown) [Bepridil], the “possible loss of potency on storage in V8” value in the series with EBOV/Mak [4] was less than 2 fold. Also, 4.5 µM corresponded to half-maximal inhibition with EBOV/Mak [4] (Huh-7) (IC50). In the series with EBOV/Mak [4] (setting [12]), the IC50 came out at 4.53 µM. For the same compound, the “stability of inhibitory activity of stock in V8” value with VSV-EBOV-GPΔ-Luc is reported as “maintained inhibitory activity over 15 days”. In [5] (fitted PK model parameter), this compound registered a Tk0 of 0.0873 days, a k12 of 6.71 per day and a k21 of 1.61 per day. In [5], this compound showed a V of 25.2 and a k of 0.348 per day. Besides, the single drug effect entry in the series with Ebola virus is listed as “exceeds 80%”. Further, the “state of preparation in Vehicle 8 when removed from the refrigerator” value (from here on “state of preparation”) in series [6] was “always solid (as if it had frozen) and contained precipitate”. In the series with EBOV/Mak [1], the Hill coefficient is 4.859. Also, the IC50 with EBOV/Mak [1] (read-out: IC50 (Huh7)) is 5.86 µM. Also, the IC50 in the series with EBOV/Mak [1] (read-out: IC50) was 5.86 µM. In addition, in series [7], the “Cmax obtained relative to prediction, fold higher” value is recorded as roughly 1.8 fold and the highest concentration (Cmax) is roughly 3000 nM. Besides, in the series with EBOV [8], the IC50 was 3.21 µM. For the same compound, in the series with MARV, the “Survival (%)” value was 90 ^4%. In “in vivo”, this compound returned a Cmax of 3300 nM. Besides, the “Survival (%)” value in the series on EBOV [3] was 100% and 100 ^3%. In addition, in [2], the peak concentration is recorded as 3.63 (±1.48) μM and the trough concentration was 2.60 (±1.21) μM. Moreover, in [9], the “solubility in Vehicle #9” value is listed as “Clear solution”, the “solubility in Vehicle #7” value was “Clear solution”, the “solubility in Vehicle #6” value is “Clear solution” and the “solubility in Vehicle #2” value is given as “Slightly hazy”. Besides, in series [9], the “solubility in Vehicle #10” value was “Clear solution”, the “solubility in Vehicle #8” value was “Clear solution”, the “solubility in Vehicle #1” value is “Suspension” and the “solubility in Vehicle #5” value is listed as “Clear solution”. In [9], the “solubility in Vehicle #4” value was “Clear solution” and the “solubility in Vehicle #3” value is “Clear solution”. In [10], the tolerability in mice entry was “well tolerated”.

In series [5] (fitted PK model parameter), `CN[C@H]1CC[C@@H](c2ccc(Cl)c(Cl)c2)c2ccccc21` [Sertraline] yielded a Tlag of 0.0976 days. This compound also displayed a V in series [5] of 909. Further, the “state of preparation” value in series [6] is “no precipitates, not solid”. Moreover, in the series on EBOV/Mak [1], the Hill coefficient is reported as 1.628. In addition, in series [7], the “Cmax obtained relative to prediction, fold higher” value is listed as roughly 1.2 fold and the Cmax was roughly 1200 nM. Also, the efficacy in macaques result in the series with EBOV/Mak-005 is “not effective; also recorded: did not protect”. The “Survival (%)” value with EBOV [3] is 70% and 70 ^ %. Also, in series [9], the “solubility in Vehicle #9” value is listed as “Clear solution”, the “solubility in Vehicle #7” value is “Clear solution”, the “solubility in Vehicle #6” value is “Clear solution” and the “solubility in Vehicle #2” value is reported as “Clear solution”. Also, in series [9], the “solubility in Vehicle #10” value is listed as “Clear solution”, the “solubility in Vehicle #8” value is reported as “Clear solution”, the “solubility in Vehicle #1” value is “Suspension” and the “solubility in Vehicle #5” value is given as “Clear solution”. For the same compound, in series [9], the “solubility in Vehicle #4” value is on record as “Clear solution” and the “solubility in Vehicle #3” value is “Clear solution”. In series [10], the tolerability in mice result was “well tolerated”.

Turning to `CN(C)CCOc1ccc(/C(=C(/CCCl)c2ccccc2)c2ccccc2)cc1` [Toremifene], the half-inhibitory concentration (IC50) in the series with EBOV/Mak [4] (setting [12]) worked out at 1.83 µM. Besides, the “stability of inhibitory activity of stock in V8” value with VSV-EBOV-GPΔ-Luc is “began to lose activity after about 1 week”. For the same compound, in the series with EBOV [11], the “approximated protection of infected mice” value is roughly 50% and the reasoned survival was roughly 7%. Also, the estimated survival with EBOV [11] (po, 200 mg/kg) is recorded as roughly 50%. Besides, in series [5] (fitted PK model parameter), the k12 was 4.28 per day and the k21 is reported as 0.992 per day. In series [5], this compound had a V of 354 and a k of 0.000198 per day. The ka in series [5] (fitted absorption rate) came to 16.6 per day. In series [6], the “state of preparation” value is on record as “no precipitates, not solid”. Moreover, the Hill coefficient in the series with EBOV/Mak [1] is recorded as 3.057. Further, in the series with EBOV/Mak [1] (read-out: IC50 (Huh7)), the half-maximal inhibitory concentration (IC50) is 3.64 µM. The IC50 in the series on EBOV/Mak [1] (read-out: IC50) was 3.64 µM. Further, in series [7], the “Cmax obtained relative to prediction, fold lower” value is reported as roughly 1.4 fold and the Cmax is roughly 4400 nM. Also, the IC50 in the series on EBOV [8] is 0.03 µM. Also, in the series with EBOV [3], the “Survival (%)” value was 50% and 50 ^ %. Also, in [2], the peak concentration is reported as 1.18 (±0.42) μM and the trough concentration was 0.29 µM. Further, in [9], the “solubility in Vehicle #9” value was “Clear solution”, the “solubility in Vehicle #7” value is given as “Clear solution”, the “solubility in Vehicle #6” value was “Suspension” and the “solubility in Vehicle #2” value is given as “Clear solution”. In [9], the “solubility in Vehicle #10” value was “Insoluble”, the “solubility in Vehicle #8” value is reported as “Clear solution”, the “solubility in Vehicle #1” value was “Suspension” and the “solubility in Vehicle #5” value is reported as “Suspension”. In addition, in [9], the “solubility in Vehicle #4” value is recorded as “Non-” and the “solubility in Vehicle #3” value was “Suspension”. Further, the tolerability in mice result in series [10] was “well tolerated”.

With `CCOC(=O)c1c(CSc2ccccc2)n(C)c2cc(Br)c(O)c(CN(C)C)c12` [arbidol], the baseline efficacy with SARS-CoV-2 is 36%. Moreover, in series [2], the peak concentration is given as 0.77 (±0.23) μM and the trough concentration is 0.32 (±0.09) μM.

For the compound `CC(=O)c1ccc2c(c1)N(CCCN1CCC(CCO)CC1)c1ccccc1S2` [piperacetazine, Piperacetazine], the IC50 was 7.58 µM in the series on EBOV/Mak [1] (read-out: IC50 (Huh7)) and 3.3 µM with EBOV [8].

In the case of `CCC(CC)COC(=O)[C@H](C)N[P@](=O)(OC[C@H]1O[C@@](C#N)(c2ccc3c(N)ncnn23)[C@H](O)[C@@H]1O)Oc1ccccc1` [remdesivir], the baseline efficacy in the series on SARS-CoV-2 came out at 60%. Besides, in series [2], the “median t1/2” value is recorded as “≈ 1 hour”, the peak concentration is given as 5.34 (±0.03) μM and the “time of peak concentration” value is 1.03 (±0.01) hour.

Regarding `O=C(Nc1ncc([N+](=O)[O-])s1)c1ccccc1O` [tizoxanide], in series [2], the peak concentration is on record as 17.34 (±13.61) and the trough concentration is on record as 3.02 (±7.43).

Broadly, the IC50 is the point on the concentration scale where inhibition reaches its midpoint. The Cmax is the highest concentration seen after dosing. Usually Hill coefficient stands for a measure of the steepness of the concentration-response curve.
